In BigSolDB 2.1:

O=[N+]([O-])c1cc[nH]n1
solubility (mole fraction)
Conditions	283.15 K	288.15 K	293.15 K	298.15 K	303.15 K	308.15 K	313.15 K	318.15 K	323.15 K
in 1,2-dichlorobenzene	0.0009	0.00242	0.00425	0.00666	0.00908	0.0113	0.0139	0.0166	0.0197
in 2-ethylhexyl acetate	0.00998	0.0107	0.0115	0.0122	0.0134	0.0146	0.0166	–	–
in anisole	0.00502	0.00551	0.00623	0.00688	0.0078	0.0092	0.0112	0.0132	0.0156
in benzonitrile	0.0197	0.0223	0.0253	0.0291	0.0342	0.0396	0.0486	0.0631	0.0828
in benzyl alcohol	0.0263	0.0296	0.0333	0.0391	0.0452	0.0508	0.0581	0.0672	0.0753
in mesitylene	0.00129	0.00162	0.002	0.00246	0.00288	0.00335	0.00401	0.00476	0.00578
in n-octanol	0.0127	0.0144	0.0164	0.0192	0.0232	0.0272	0.0315	0.0362	0.0429
